Laboratory results taken from PMC12434521, “Characterization of Next-Generation Inhibitors for the Inward-Rectifier Potassium Channel Kir2.1: Discovery of VU6080824” (ACS Medicinal Chemistry Letters, 2025).
Where two headings read alike, the source gives them in different places. Each block holds one compound with its values, some of them ahead of it.

Experiments:
Kir4.1 [1] = molecular target: T1, Kir4.1 (Homo sapiens, UniProt P78508); test: Kir4.1 thallium flux assay; assay type: cell-based; conditions: selective up to 10 μM
T1 sequence (P78508 1-379): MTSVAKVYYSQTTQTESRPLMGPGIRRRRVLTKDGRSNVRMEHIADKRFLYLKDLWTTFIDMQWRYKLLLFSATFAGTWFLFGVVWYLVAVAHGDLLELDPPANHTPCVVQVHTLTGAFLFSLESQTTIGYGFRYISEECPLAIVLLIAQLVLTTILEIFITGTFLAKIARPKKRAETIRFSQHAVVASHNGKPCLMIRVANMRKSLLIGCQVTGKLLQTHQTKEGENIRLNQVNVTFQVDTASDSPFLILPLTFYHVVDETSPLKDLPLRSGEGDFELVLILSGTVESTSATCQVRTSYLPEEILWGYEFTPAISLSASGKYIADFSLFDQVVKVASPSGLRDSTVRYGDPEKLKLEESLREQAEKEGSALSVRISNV

Kir2.3 = molecular target: T2, Kir2.3 (Homo sapiens, UniProt P48050); test: Kir2.3 manual patch clamp (MPC); assay type: cell-based
T2 construct: expressed in transfected cells
T2 sequence (P48050 1-445): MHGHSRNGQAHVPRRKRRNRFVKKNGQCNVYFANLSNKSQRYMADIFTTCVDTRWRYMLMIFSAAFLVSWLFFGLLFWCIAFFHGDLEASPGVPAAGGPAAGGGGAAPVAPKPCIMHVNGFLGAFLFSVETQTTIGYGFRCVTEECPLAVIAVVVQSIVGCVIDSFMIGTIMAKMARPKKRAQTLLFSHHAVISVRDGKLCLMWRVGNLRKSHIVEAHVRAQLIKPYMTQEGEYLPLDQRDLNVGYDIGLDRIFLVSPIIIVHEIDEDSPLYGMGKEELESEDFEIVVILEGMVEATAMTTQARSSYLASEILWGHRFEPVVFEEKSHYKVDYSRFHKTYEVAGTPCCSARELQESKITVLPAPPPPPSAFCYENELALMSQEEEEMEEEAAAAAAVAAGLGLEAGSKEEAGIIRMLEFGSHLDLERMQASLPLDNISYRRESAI
Experimental: Manual Patch Claim Assay Experimental Conditions
Whole-cell patch-clamp electrophysiology was used to record K ir2.1 currents from a stably transfected monoclonal T-Rex-HEK-293 cell line with a tetracycline-inducible promoter expressing human Kir2.1, as described previously1 cultured in a 5% CO2 incubator at 37°C. Kir2.1 expression was induced by overnight treatment with 1 µg/mL tetracycline. Cells were dissociated using 0.25% Trypsin-EDTA and seeded onto 12 mm circular coverslips (Electron Microscopy Sciences, PA, USA) for same-day whole-cell patch-clamp recordings. Kir2.1 currents were recorded at room temperature using an AxoPatch 200B amplifier with Clampex 10.7 software (Molecular Devices, USA). The voltage-clamp protocol consisted of a 1-s step to -120 mV from a -80 mV holding potential, followed by a 2-s ramp to +40 mV, repeated every 10 s. Data were sampled at 5 kHz and filtered at 1 kHz. Patch pipettes, pulled from 1.5 mm OD thin-walled capillaries (Warner Instruments, MA, USA) using a Sutter P-1000 puller (Sutter Instrument, CA, USA), had resistances of 2–3 MΩ when filled with intracellular solution containing (mM): 135 KCl, 10 HEPES, 1 EGTA, 2 MgCl2, 2 Na2ATP (pH 7.35, adjusted with KOH). The extracellular solution contained (mM): 135 NaCl, 5 KCl, 2 CaCl2, 1 MgCl2, 5 Glucose, 10 HEPES, 10 Sucrose (pH 7.35, adjusted with NaOH). After establishing stable baseline Kir2.1 currents, cells were perfused with compounds at concentrations of 0.03–30 µM until response saturation (within minutes).
Recordings concluded with a 2 mM Ba2+ solution to isolate Ba2+-sensitive currents, with compound responses expressed as fractions of this current. Current amplitudes at the -120 mV step were analyzed using Clampfit 11.2 (Molecular Devices). IC50 values were calculated by fitting the Hill equation to concentration-response curves (CRCs) using variable -slope nonlinear regression in GraphPad Prism 10.4 (GraphPad Software).
MPC experiments for Kir2.2 and Kir2.3 were conducted in an analogous fashion.1

human Kir2.1 = molecular target: T3, human Kir2.1 (Homo sapiens, UniProt P63252); design: method as in PMID 21615117; conditions: pH 7.4; read-out: Kir2.1 manual patch clamp IC50 (original report); cited from earlier work
T3 construct: expressed in transfected cells
T3 sequence (P63252 1-427): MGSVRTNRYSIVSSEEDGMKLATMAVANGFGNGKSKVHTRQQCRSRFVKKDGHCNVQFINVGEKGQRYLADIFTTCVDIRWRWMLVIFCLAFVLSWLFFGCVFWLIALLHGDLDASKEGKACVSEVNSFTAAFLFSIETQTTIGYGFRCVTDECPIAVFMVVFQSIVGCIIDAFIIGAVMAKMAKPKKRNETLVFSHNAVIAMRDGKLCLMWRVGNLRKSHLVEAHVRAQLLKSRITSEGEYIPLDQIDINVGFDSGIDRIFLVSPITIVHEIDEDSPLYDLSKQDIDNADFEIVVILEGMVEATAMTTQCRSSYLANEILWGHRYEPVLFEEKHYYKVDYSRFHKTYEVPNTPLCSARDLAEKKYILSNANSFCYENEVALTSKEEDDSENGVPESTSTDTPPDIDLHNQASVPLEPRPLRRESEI

Kir4.1 [2] = molecular target: T1, Kir4.1; design: method as in PMID 21615117; conditions: cited from earlier work
Kir7.1 = test system: Kir7.1; design: method as in PMID 21615117; conditions: cited from earlier work

Compound: COc1ccc(CNCc2ccc(-c3cccc(OC)c3)cc2)cc1 [Compound 5s, 1-(3′-Methoxy-[1,1’-biphenyl]-4-yl)-N-(4-methoxybenzyl)methanamine]
IC50 (Kir4.1 [1]): > 10000 nM | IC50 (Kir2.3): 860 nM | Kir2.1/Kir2.3 Selectivity (MPC) (Kir2.3): 2.5 fold | Kir2.1/Kir2.3 Selectivity (MPC) (Kir2.3; listed as VU6080824): approximately 2 fold

Compound: [2H]C([2H])([2H])Oc1ccc(CNCc2ccc(-c3cccc(OC)c3)cc2)cc1 [Compound 9]
Kir2.1/Kir2.3 Selectivity (MPC) (Kir2.3): 1.8 fold

Compound: COc1ccc(CNCc2cccc3ccccc23)cc1 [ML133, N-(4-methoxybenzyl)-1-(naphthalen-1-yl)methanamine, reference compound]
IC50 (human Kir2.1): 1800 nM | IC50 (Kir4.1 [2]): > 30000 nM | IC50 (Kir7.1): > 30000 nM

The next lines start with the values.

Kir2.1/Kir2.3 Selectivity (MPC) (Kir2.3): 1.3 fold
Compound: [2H]C([2H])([2H])Oc1cccc(-c2ccc(CNCc3ccc(OC)cc3)cc2)c1 [Compound 11]

Kir2.1/Kir2.3 Selectivity (MPC) (Kir2.3): 2.4 fold
Compound: [2H]C([2H])([2H])Oc1ccc(CNCc2ccc(-c3cccc(OC([2H])([2H])[2H])c3)cc2)cc1 [Compound 13]
